# Values quoted from earlier work, collected in patent US10485825B2, “Prevention of pregnancy complications by noble gas administration” (NOBLIS THERAPEUTICS, INC., priority 2016, dated 2019).
# Test system: Tregs
# Details: CCL20 stimulation; blocked by neutralizing anti-CCL20 antibody
substance,measurement,value
CCL20: CCL20 protein used to stimulate Treg migration in a cited study,increase in migration of CCL20-stimulated Tregs,3.21 fold
